Values after ≈ are worked out from the molar mass of the structure shown. Where two headings read alike, the source gives them in different places.
Tested on: S. aureus clinical isolates
Assay: microbe, parasite or virus in culture
Type: cell-based
Details: Staphylococcus aureus, read-out: MIC

`C[C@H]1COc2c(N3CCN(C)CC3)c(F)cc3c(=O)c(C(=O)O)cn1c23` [Levofloxacin] was tested, and the MIC (ATCC 29213 / MSSA, S. aureus ATCC 29213, MSSA / VSSA, test date 2018-10-25 (three repeat lines)) was 0.25 mg/L (≈ 0.692 µM), the MIC (ATCC 29213 / MSSA, S. aureus ATCC 29213, MSSA / VSSA, test date 2018-11-07) was 0.25 mg/L (≈ 0.692 µM) and the MIC (MRSA / NRS 3 / VISA, S. aureus IHMA 1308243, NRS3, MRSA / VISA) was 32 mg/L (≈ 88.6 µM). The MIC (MRSA / NRS 4 / VISA, S. aureus IHMA 649380, NRS4, MRSA / VISA) was 16 mg/L (≈ 44.3 µM), the MIC (MRSA / NRS 18 / VISA, S. aureus IHMA 649386, NRS18, MRSA / VISA) was 16 mg/L (≈ 44.3 µM) and the MIC (MRSA / NRS 19 / VISA, S. aureus IHMA 649387, NRS19, MRSA / VISA) was 32 mg/L (≈ 88.6 µM). For the same compound, the MIC (MRSA / NRS 21 / VISA, S. aureus IHMA 649388, NRS21, MRSA / VISA) was 8 mg/L (≈ 22.1 µM), the MIC (MRSA / NRS 22 / USA600 / VISA, S. aureus IHMA 649389, NRS22, MRSA / VISA, USA600) was 16 mg/L (≈ 44.3 µM) and the MIC (MRSA / NRS 23 / VISA, S. aureus IHMA 649390, NRS23, MRSA / VISA) was 16 mg/L (≈ 44.3 µM). For the same compound, the MIC (MRSA / NRS 24 / VISA, S. aureus IHMA 649391, NRS24, MRSA / VISA) was 64 mg/L (≈ 177 µM), the MIC (MRSA / NRS 26, S. aureus IHMA 649392, NRS26, MRSA / VSSA) was 8 mg/L (≈ 22.1 µM) and the MIC (MRSA / NRS 27 / VISA, S. aureus IHMA 1308248, NRS27, MRSA / VISA) was 32 mg/L (≈ 88.6 µM). The MIC (MRSA / NRS 29 / VISA, S. aureus IHMA 1308250, NRS29, MRSA / VISA) was 16 mg/L (≈ 44.3 µM), the MIC (MRSA / NRS 37 / VISA, S. aureus IHMA 1308251, NRS37, MRSA / VISA) was 32 mg/L (≈ 88.6 µM) and the MIC (MRSA / NRS 54, S. aureus IHMA 1308253, NRS54, MRSA / VSSA* (*Expected VAN intermediate, confirmed VAN susceptible twice), test date 2018-11-07) was 8 mg/L (≈ 22.1 µM). For the same compound, the MIC (MRSA / NRS 56 / VISA, S. aureus IHMA 1308254, NRS56, MRSA / VISA) was 8 mg/L (≈ 22.1 µM), the MIC (MRSA / USA100 / VRSA, S. aureus IHMA 672230, VRS1, MRSA / VRSA, USA100) was 32 mg/L (≈ 88.6 µM) and the MIC (MRSA / USA100 / VRSA, S. aureus IHMA 672231, VRS2, MRSA / VRSA, USA100) was 32 mg/L (≈ 88.6 µM). For the same compound, the MIC (MRSA / USA100 / VRSA, S. aureus IHMA 672234, VRS4, MRSA / VRSA, USA100) was > 64 mg/L, the MIC (MRSA / USA100 / VRSA, S. aureus IHMA 672235, VRS5, MRSA / VRSA, USA100) was 64 mg/L (≈ 177 µM) and the MIC (MRSA / USA100 / VRSA, S. aureus IHMA 672237, VRS7, MRSA / VRSA, USA100) was 64 mg/L (≈ 177 µM). The MIC (MRSA / USA100 / VRSA, S. aureus IHMA 672238, VRS8, MRSA / VRSA, USA100) was 16 mg/L (≈ 44.3 µM), the MIC (MRSA / USA100 / VRSA, S. aureus IHMA 672239, VRS9, MRSA / VRSA, USA100) was 64 mg/L (≈ 177 µM) and the MIC (MRSA / USA100 / VRSA, S. aureus IHMA 1308256, VRS10, MRSA / VRSA, USA100) was > 64 mg/L. For the same compound, the MIC (MRSA / USA100 / VRSA, S. aureus IHMA 1308258, VRS11b, MRSA / VRSA, USA100) was > 64 mg/L, the MIC (MRSA / USA800 / VRSA, S. aureus IHMA 672233, VRS3b, MRSA / VRSA, USA800) was 16 mg/L (≈ 44.3 µM) and the MIC (MRSA, S. aureus IHMA 1569509, MRSA / VSSA) was 4 mg/L (≈ 11.1 µM). For the same compound, the MIC (MRSA, S. aureus IHMA 1575268, MRSA / VSSA) was 32 mg/L (≈ 88.6 µM), the MIC (MRSA, S. aureus IHMA 1575629, MRSA / VSSA) was 8 mg/L (≈ 22.1 µM) and the MIC (MRSA, S. aureus IHMA 1577820, MRSA / VSSA) was > 64 mg/L. It also gave an MIC (MRSA, S. aureus IHMA 1580300, MRSA / VSSA) of 16 mg/L (≈ 44.3 µM), an MIC (MRSA, S. aureus IHMA 1580940, MRSA / VSSA) of 0.5 mg/L (≈ 1.38 µM) and an MIC (MRSA, S. aureus IHMA 1582100, MRSA / VSSA) of 32 mg/L (≈ 88.6 µM). It also gave an MIC (MRSA, S. aureus IHMA 1583795, MRSA / VSSA) of 32 mg/L (≈ 88.6 µM), an MIC (MRSA, S. aureus IHMA 1584223, MRSA / VSSA) of 8 mg/L (≈ 22.1 µM) and an MIC (MRSA, S. aureus IHMA 1585316, MRSA / VSSA) of 32 mg/L (≈ 88.6 µM). For the same compound, the MIC (MRSA, S. aureus IHMA 1586780, MRSA / VSSA) was 16 mg/L (≈ 44.3 µM), the MIC (MRSA, S. aureus IHMA 1587322, MRSA / VSSA) was 0.25 mg/L (≈ 0.692 µM) and the MIC (MRSA, S. aureus IHMA 1588127, MRSA / VSSA) was 16 mg/L (≈ 44.3 µM). For the same compound, the MIC (MRSA, S. aureus IHMA 1591462, MRSA / VSSA) was 32 mg/L (≈ 88.6 µM), the MIC (MRSA, S. aureus IHMA 1592755, MRSA / VSSA) was 16 mg/L (≈ 44.3 µM) and the MIC (MRSA, S. aureus IHMA 1592776, MRSA / VSSA) was 0.25 mg/L (≈ 0.692 µM). The MIC (MRSA, S. aureus IHMA 1597106, MRSA / VSSA) was 16 mg/L (≈ 44.3 µM), the MIC (MRSA, S. aureus IHMA 1602095, MRSA / VSSA) was 0.25 mg/L (≈ 0.692 µM) and the MIC (MRSA, S. aureus IHMA 1611170, MRSA / VSSA) was 0.25 mg/L (≈ 0.692 µM). The MIC (MRSA, S. aureus IHMA 1611612, MRSA / VSSA) was 32 mg/L (≈ 88.6 µM), the MIC (MRSA, S. aureus IHMA 1612228, MRSA / VSSA) was 8 mg/L (≈ 22.1 µM) and the MIC (MRSA, S. aureus IHMA 1620441, MRSA / VSSA) was 32 mg/L (≈ 88.6 µM).
